Here are results for ten molecules from PubChem BioAssay (NCI).

SMILES strings stand for the structures.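 All cell lines were grown in 96-well plates and treated with compound for 48 hours. GI50 marks 50% less growth. At the TGI there is no net growth.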

Holding throughout (assay): DTP human tumour cell line panel, 48 h
For assay [1], the system named is MCF7 breast.
Assay [2] deals with MDA-MB-231 breast.
The test system of assay [3] is UACC-62 melanoma.
The test system of assay [4] is T-47D breast.
Assay [5] concerns UO-31 renal.
Assay [6] concerns BT-549 breast.
Assay [7] concerns HT29 colon.
Assay [8] has as its system EKVX NSCLC.

`N#Cc1c(NCc2ccccc2)nc(NCc2ccccc2)c(C#N)c1-c1ccc(O)cc1`: the GI50 in assay [1] is 39700 nM; in assay [2], 2680 nM; in assay [3] it was 21.5 µM; in assay [4] it was 23800 nM; in assay [5], 18600 nM; in assay [6] it was 32800 nM. Further, the GI50 was 60200 nM in assay [7] and 48500 nM in assay [8]. Further, the TGI in assay [1] is above 100 µM; in assay [2], 33 µM; in assay [3] it was above 100 µM; in assay [4], above 100 µM; in assay [5] it was 68.5 µM; in assay [6], above 100 µM. The TGI in assay [7] and in assay [8] was above 100 µM each time.
Consider `C=C(CN1CCN(c2ccc(C(F)(F)F)cc2)CC1)c1ccc(C(=O)Nc2ccccc2N)cc1`, for which the GI50 was 10900 nM in assay [1]; 3600 nM in assay [2]; 23 µM in assay [3]; 21800 nM in assay [4]; 967 nM in assay [5]; 6930 nM in assay [6]. Besides, the GI50 was above 75700 nM in assay [7] and 12300 nM in assay [8]. Besides, the TGI in assay [1] was above 100 µM; in assay [2], above 71.3 µM; in assay [3], above 100 µM; in assay [4] it was above 100 µM; in assay [5], above 73.1 µM; in assay [6], 97.8 µM. The TGI in assay [7] and in assay [8] was above 100 µM throughout.
For `O=C(CC1(O)C(=O)N(Cc2ccccc2)c2ccc(Cl)cc21)c1ccc(C(=O)NCC2CCC3(CC2)OOC2(CCCCC2)OO3)cc1` (stereo unspecified), the GI50 in assay [1] was 1810 nM; in assay [2] it was 327 nM; in assay [3] it was 6.26 µM; in assay [4], 653 nM; in assay [5], 134 nM; in assay [6] it was 2420 nM. Besides, the GI50 in assay [7] is 236 nM; in assay [8] it was 306 nM. The TGI in assay [1] came to 66.2 µM; in assay [2], 0.988 µM; in assay [3], 77.7 µM; in assay [4] it was 3.38 µM; in assay [5], 0.289 µM; in assay [6] it was 15 µM. In addition, the TGI was determined as 0.544 µM in assay [7] and 1.08 µM in assay [8].
For the molecule `CSC(=NC#N)S/C=C/C(=O)c1ccccc1`, the GI50 in assay [1] was 52300 nM; in assay [2], 39200 nM; in assay [3] it was 33.4 µM; in assay [4], above 100000 nM; in assay [5], 28300 nM; in assay [6] it was 29200 nM. Moreover, the GI50 in assay [7] is 37300 nM; in assay [8], 86400 nM. The TGI in assay [1] was above 100 µM; in assay [2] it was above 100 µM; in assay [3], above 100 µM; in assay [4], above 100 µM; in assay [5], above 100 µM; in assay [6], 70.4 µM. The TGI in assay [7] and in assay [8] was above 100 µM each time.
Turning to `O=C(/C=C/c1ccc(Cl)cc1)c1ccccc(=O)c1O`, the TGI is 19.8 µM in assay [1]; 23.6 µM in assay [2]; 6 µM in assay [3]; 19.8 µM in assay [4]; above 100 µM in assay [5]; 13.5 µM in assay [6]. The TGI in assay [7] was 10.8 µM; in assay [8], 18.3 µM.
Regarding `COc1ccc(C=Nc2c(C(=O)Nc3cccc(Cl)c3C)sc3nc(C)c(C(=O)/C=C/c4ccc(OC)cc4)cc23)cc1`, the GI50 in assay [1] was 293 nM; in assay [2], 383 nM; in assay [3], 0.312 µM; in assay [4] it was 1280 nM; in assay [5], 2040 nM; in assay [6], 787 nM. Also, the GI50 in assay [7] was 306 nM; in assay [8] it was 2240 nM. The TGI is above 50 µM in assay [1]; 2.26 µM in assay [2]; above 23.1 µM in assay [3]; above 50 µM in assay [4]; above 50 µM in assay [5]; above 38.5 µM in assay [6]. Also, the TGI in assay [7] and in assay [8] was above 50 µM throughout.
With `CCCc1n(Cc2ccc3ccccc3c2)cc[n+]1Cc1ccc2ccccc2c1`, the GI50 in assay [1] is 1110 nM; in assay [2] it was 1060 nM; in assay [3], 0.647 µM; in assay [4], 377 nM; in assay [5], 2560 nM; in assay [6] it was 772 nM. Moreover, the GI50 in assay [7] is 513 nM; in assay [8], 1710 nM. Moreover, the TGI in assay [1] came to 2.77 µM; in assay [2], 2.54 µM; in assay [3] it was 2.02 µM; in assay [4], 3.17 µM; in assay [5] it was 11.6 µM; in assay [6] it was 2.16 µM. The TGI in assay [7] was determined as 1.89 µM; in assay [8], 11.4 µM.
Consider `C[C@H]1/C(=C/C(=O)OCCN(C)C)CC[C@H]2[C@H]1C(=O)C[C@H]1C(C)(C)[C@@H](O)CC[C@]21C`, for which the concentration for total growth inhibition (TGI) in assay [1], in assay [2], in assay [3], in assay [4], in assay [5] and in assay [6] was above 100 µM each time. Besides, the TGI in assay [7] and in assay [8] was above 100 µM in each case.
For the molecule `O=c1c2ccc(S(=O)(=O)c3ccc4c(=O)n5c6ccccc6nc5c5cccc3c45)c3cccc(c32)c2nc3ccccc3n12`, the TGI in assay [1] is above 100 µM; in assay [2], 59.9 µM; in assay [3], above 100 µM; in assay [4] it was 99.3 µM; in assay [5], above 100 µM; in assay [6], 50.5 µM. In addition, the TGI in assay [7] and in assay [8] was above 100 µM throughout.
Turning to `CCCCC(CCCCCC(CCCC)NCc1ccc2c(c1)OCO2)NCc1ccc2c(c1)OCO2` (stereo unspecified), the GI50 in assay [1] was 273 nM; in assay [2], 539 nM; in assay [3], 1.57 µM; in assay [4], 315 nM; in assay [5] it was 481 nM; in assay [6] it was 1480 nM. Moreover, the figures for the GI50 in assay [7] and in assay [8] were 262 nM and 1370 nM, respectively. The TGI in assay [1] came to 0.744 µM; in assay [2] it was 1.83 µM; in assay [3], 3.12 µM; in assay [4], 0.933 µM; in assay [5] it was 1.16 µM; in assay [6], 3.06 µM. In addition, the TGI amounted to 0.687 µM in assay [7] and 2.87 µM in assay [8].

One may read the GI50 as the concentration that inhibits growth by half. In general, TGI refers to the concentration at which net growth stops.
